Data set [1] concerns mouse myoblasts (C2C12 cells). In words: Cytotoxicity test of Ac4ManNAz by WST-1 assay. Format: cell-based. On the procedure: In order to examine the cytotoxicity of the synthesized Ac4ManNAz, mouse myoblasts (C2C12 cells) were used to evaluate toxicity to cells by WST-1 assay. The cells were seeded in a 96-well plate at 1×10^4 cells/well, to which a predetermined amount of Ac4ManNAz dissolved in a DMEM medium (final concentrations of 0, 0.0001, 0.001, 0.01, 0.1 and 1 mM) was added to culture the resultant in a CO2 incubator at 37° C. for one day. To each well, 10 μL of a WST-1 solution (WST-1:1-Methoxy PMS=9:1) was added to allow reaction in the CO2 incubator for 2 hours. Thereafter, absorbance was determined with a microplate reader. Cell viability was calculated from the absorbance.
In general terms: Tetrazolium dyes change colour on reduction, which living cells bring about.

Another data set concerns C2C12 cells. Description: Azide modification of cell surface by sugar metabolism of Ac4ManNAz, detected with carboxyrhodamine 110 DBCO. The format is cell-based, mouse. On the procedure: C2C12 cells were cultured in a DMEM medium containing 100 μM of Ac4ManNAz for 3 days to allow biosynthesis of azide-modified sialic acid at the end of the glycan of the cell membrane protein via cell sugar metabolism reaction of Ac4ManNAz. The cultured cells were washed with PBS twice. To confirm whether an azide group was introduced, carboxyrhodamine 110 DBCO (final concentration 5 μM) was added to the medium and allowed to react in the CO2 incubator for an hour. Subsequently, the cells were washed with PBS twice, to which a live cell imaging buffer (composition of the solution: 140 mM NaCl, 2.5 mM KCl, 1.8 mM CaCl2), 1.0 mM MgCl2 and 20 mM HEPES pH 7.4) was added to observe the cells with a confocal microscope.

For data set [2], the system named is mouse tissues (lung, cardiac muscle, skeletal muscle, kidney). In words: Azide modification of mouse tissues by Ac4ManNAz administration and hydrogel fabrication using biological tissue. The format is in vivo. The following applies: intraperitoneal once a day for seven days. On the procedure:
6 mg of Ac4ManNAz was dissolved in a mixed solvent of DMSO and PBS solution (58% DMSO) to prepare a Ac4ManNAz solution. 200 μL of the resulting Ac4ManNAz solution was intraperitoneally administered to a mouse (ICR, 5 weeks old, female) once a day for seven consecutive days for azide-modification of the mouse tissues. A week later, lung, cardiac muscle, skeletal muscle and kidney of the mouse were resected. The resected tissues were allowed to react with 100 μM of carboxyrhodamine 110 DBCO for an hour, then added with a PBS solution, vortexed and left to stand still for 10 minutes. This operation was repeated for 3 times. As control, tissues resected from a mouse that was not administered with the Ac4ManNAz solution were allowed to react with carboxyrhodamine 110 DBCO for an hour. […] In order to carry out gelation reaction using mouse tissues, the Ac4ManNAz solution was administered to a mouse in the same manner as described above and lung, brain, muscle tissue, kidney, heart and liver were resected from the mouse.

What is called cell viability is a per cent measure of how many cells are alive, often set against a control. Low values mean a greater loss of cells, high ones better survival. For the compound `CC(=O)OC[C@H]1OC(OC(C)=O)[C@@H](NC(=O)CN=[N+]=[N-])[C@@H](OC(C)=O)[C@@H]1OC(C)=O` (some centres unmarked) [Ac4ManNAz], the “amount applicable without having toxicity to cells” value in data set [1] (WST-1) is 5 to 100 µM. The same compound came in with a cell viability in data set [1] (WST-1, all concentrations (0-1 mM), one day) of at least 90%. Also, the “carboxyrhodamine 110-derived green fluorescence of cells” value with C2C12 cells (C2C12 cells cultured with 100 μM for 3 days, confocal microscope) is given as “strong green fluorescence was observed only on the surface of the cell membrane”. Besides, the “concentration that allows a maximum amount of azide groups to be introduced into the cell surface (fluorescence intensity plateau)” value in the data set on C2C12 cells (C2C12 cells, carboxyrhodamine 110 DBCO) was found to be 100 µM. In data set [2], the “azide modification of tissues in living body (FITC-derived green fluorescence after bAlg-DBCO-FITC)” value is “green fluorescence was observed in all of the tissues”.

Source of the values: patent US12257367B2, “Biomaterials for biological tissue repair” (KONAN GAKUEN, priority 2019, dated 2025).
